Measurements as given in patent US20160067247A1, “NOVEL USE” (GlaxoSmithKline Intellectual Property (No.2) Limited, priority 2012, published 2016).
Read-outs that look alike come from different tables or passages of the source.

What was measured:
AKT phosphorylation = AKT phosphorylation in cells (macrophages) isolated from IPF BALF, MSD assay (Example 1); type: cell-based; settings: Homo sapiens, Macrophage, 25 min; macrophages isolated from n=3 IPF BALFs; 25 minutes incubation; geometric mean (95% CI 0.28-1.08 nM); read-out: IC50 for inhibition of AKT phosphorylation
Description: Phosphorylation of AKT is widely accepted as an indication of PI3-kinase activity, and is utilised here to obtain an IC50 for the effect of 2,4-difluoro-N-{2-(methyloxy)-5-[4-(4-pyridazinyl)-6-quinolinyl]-3-pyridinyl}benzenesulfonamide on primary human lung fibroblasts isolated from the IPF patients, in addition to macrophages isolated from IPF bronchoalveolar lavage (BALF).
In similar experiments, inhibition of AKT phosphorylation by 2,4-difluoro-N-{2-(methyloxy)-5-[4-(4-pyridazinyl)-6-quinolinyl]-3 pyridinyl}benzenesulfonamide is assessed in cells isolated from IPF BALF. Briefly, BAL cells are resuspended in 0.1% BSA RPMI media to a cell provide a cell count of 5.7×10^4-8.3×10^4 cells per well. BAL cells are added to a 96 well plate and incubated with a range of 2,4-difluoro-N-{2-(methyloxy)-5-[4-(4-pyridazinyl)-6-quinolinyl]-3 pyridinyl}benzenesulfonamide (0.1% DMSO and 0.1% BSA final concentration in the assay). After 25 minutes incubation at 37° C., 5% CO2 the plate is spun for 5 min at 1600 rpm. The supernatants are decanted and 40 μl of phosphosafe lysis buffer containing protease inhibitors is added to each well. The plate is then snap frozen in liquid nitrogen and stored at −80° C. prior to further analysis. Following thawing on ice, cell lysates are transferred onto phospho Akt, total Akt Meso Scale Discovery (MSD) capture plates and processed as described above.

[1] = system: AKT phosphorylation (pAKT) at position Ser473; test: FBS stimulated AKT (S473) phosphorylation in primary human lung fibroblasts, MSD assay (Example 2); type: cell-based; settings: Fibroblast, 0.5 h, 20% FBS 30 minute, read-out: mean pIC50, AKT (S473) phosphorylation (converted)
Procedure: Primary human fibroblasts were isolated by explant culture from non-IPF lung tissue, obtained post mortem following sudden trauma, and IPF lung tissue obtained from the lungs of IPF patients which were removed for transplantation or biopsy. Explants were cultured in DMEM containing high glucose and sodium pyruvate (PAA laboratories, catalogue #E15-011) with penicillin/streptomycin (Sigma #P4333), amphotericin B (Sigma #A2942), L-glutamine (Gibco #25030) and 20% FBS (foetal bovine serum, Lonza, catalogue #14-801F, Lot #1SB003) at 37° C., 100% humidity, 10% CO2. Cells were designated non-IPF (UCL marked 0110 and 0610) and IPF (UCL marked 0207, 0208, 0308, 0507 and 0508) based on medical diagnosis.
Human lung primary fibroblast cell lines were cultured in DMEM containing high glucose and sodium pyruvate supplemented with L-glutamine, penicillin/streptomycin and 10% FBS (complete DMEM) at 37° C., 100% humidity, 10% CO2. Cells were split into T175 flasks (NUNC #159910) 2 to 3 days prior to assay set-up at a density which yields approximately 70-80% confluence at time of harvest for assay. Cells were harvested using 0.25% trypsin-EDTA (Gibco #25300), washed and re-suspended in complete DMEM. Cell counts were performed on the cell suspension using a Handheld Automated Cell Counter (Millipore #PHCC00000) with 60 μm sensors (Millipore #PHCC60050). […]

For `COc1ncc(-c2ccc3nccc(-c4ccnnc4)c3c2)cc1NS(=O)(=O)c1ccc(F)cc1F` [2,4-difluoro-N-{2-(methyloxy)-5-[4-(4-pyridazinyl)-6-quinolinyl]-3-pyridinyl}benzenesulfonamide], the IC50 (AKT phosphorylation) was 0.54 nM, the IC50 ([1]; IPF fibroblasts, n=5 cell lines (+/-0.1 SEM)) was 1.58 nM and the IC50 ([1]; primary human non-IPF fibroblasts, n=2 lines (range 8.8-9.4)) was 0.794 nM.
